# Assays:
# cynomolgus Siglec-2/CD22 = cynomolgus Siglec-2/CD22 (Macaca fascicularis, UniProt A0A2K5WCZ6); assay: biochemical; type: binding; settings: SPR, steady-state analysis; read-out: Affinity cyno CD22
# Outline: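 Compound binding measured by steady-state SPR analysis, 120 s dissociation, in HEPES-NaCl-Tween buffer pH 7.5 containing 1% DMSO, DMSO solvent-corrected. Surface: cyno CD22, sialic acids first stripped by SialoExo for 4 h at 37° C., then amine-coupled onto CM5.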
# [1] = target: T1, mouse Siglec-2-Fc-Avi (CD22) (Mus musculus, UniProt P35329); assay: SPR binding affinity to mouse CD22; settings: steady-state analysis
# T1 construct: made in house
# T1 sequence (P35329 22-708 limits assumed): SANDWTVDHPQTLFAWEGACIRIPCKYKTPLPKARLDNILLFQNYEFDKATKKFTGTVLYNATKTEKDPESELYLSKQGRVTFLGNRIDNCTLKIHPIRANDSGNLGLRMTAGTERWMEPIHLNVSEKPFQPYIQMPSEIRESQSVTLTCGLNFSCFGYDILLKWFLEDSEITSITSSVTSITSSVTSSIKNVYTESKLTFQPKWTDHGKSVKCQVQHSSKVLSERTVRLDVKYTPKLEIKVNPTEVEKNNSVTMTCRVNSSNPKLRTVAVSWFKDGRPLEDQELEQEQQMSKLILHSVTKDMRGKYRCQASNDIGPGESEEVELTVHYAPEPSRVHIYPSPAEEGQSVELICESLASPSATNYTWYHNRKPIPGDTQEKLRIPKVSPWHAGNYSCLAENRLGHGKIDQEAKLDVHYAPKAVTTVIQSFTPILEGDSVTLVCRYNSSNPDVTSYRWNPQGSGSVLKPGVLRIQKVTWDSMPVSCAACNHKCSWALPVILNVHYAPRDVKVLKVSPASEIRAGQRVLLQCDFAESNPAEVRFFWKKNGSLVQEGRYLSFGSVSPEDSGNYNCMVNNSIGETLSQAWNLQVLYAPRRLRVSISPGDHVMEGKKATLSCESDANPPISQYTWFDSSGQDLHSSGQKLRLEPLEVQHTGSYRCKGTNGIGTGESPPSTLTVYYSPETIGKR
# Outline: (§1)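 Biotinylated CD22 desialylated with SialoExo (4 h, 37° C) before capture on streptavidin chip. Running buffer 10 mM HEPES, 150 mM NaCl, 0.05% Tween-20, pH 7.5, 1% DMSO, with DMSO solvent correction; 120 s dissociation. Compound affinities from steady-state analysis.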
# [2] = target: T2, human Siglec-2/CD22 protein (Homo sapiens, UniProt P20273); assay: SPR binding affinity to human CD22; settings: steady-state analysis
# T2 construct: purchased Acro Biosystems SI2-H82E3
# T2 sequence (P20273 20-847): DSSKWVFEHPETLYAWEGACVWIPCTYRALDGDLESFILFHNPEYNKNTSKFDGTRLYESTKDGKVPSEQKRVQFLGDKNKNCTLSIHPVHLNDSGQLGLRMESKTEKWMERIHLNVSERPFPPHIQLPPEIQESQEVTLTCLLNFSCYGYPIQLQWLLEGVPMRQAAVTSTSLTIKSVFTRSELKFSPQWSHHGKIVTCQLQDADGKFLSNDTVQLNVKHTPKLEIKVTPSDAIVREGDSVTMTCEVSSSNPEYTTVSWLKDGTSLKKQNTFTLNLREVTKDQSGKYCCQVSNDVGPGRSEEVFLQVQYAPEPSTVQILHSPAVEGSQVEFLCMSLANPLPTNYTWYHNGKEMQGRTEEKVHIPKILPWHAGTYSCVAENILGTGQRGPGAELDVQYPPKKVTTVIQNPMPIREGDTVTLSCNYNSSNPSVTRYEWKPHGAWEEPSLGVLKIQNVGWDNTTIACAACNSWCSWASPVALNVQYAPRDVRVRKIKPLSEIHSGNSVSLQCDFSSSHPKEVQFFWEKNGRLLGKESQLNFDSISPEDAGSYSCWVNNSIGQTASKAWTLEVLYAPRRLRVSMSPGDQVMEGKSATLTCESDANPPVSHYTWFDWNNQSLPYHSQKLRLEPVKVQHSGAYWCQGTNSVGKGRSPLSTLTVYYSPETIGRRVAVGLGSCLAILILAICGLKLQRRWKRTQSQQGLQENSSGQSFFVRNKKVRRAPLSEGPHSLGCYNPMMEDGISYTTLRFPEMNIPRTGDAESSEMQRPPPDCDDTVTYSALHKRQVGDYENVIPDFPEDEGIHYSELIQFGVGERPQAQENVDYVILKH
# Outline: as §1
# Sequence of cynomolgus Siglec-2/CD22 (A0A2K5WCZ6 entry or part of it): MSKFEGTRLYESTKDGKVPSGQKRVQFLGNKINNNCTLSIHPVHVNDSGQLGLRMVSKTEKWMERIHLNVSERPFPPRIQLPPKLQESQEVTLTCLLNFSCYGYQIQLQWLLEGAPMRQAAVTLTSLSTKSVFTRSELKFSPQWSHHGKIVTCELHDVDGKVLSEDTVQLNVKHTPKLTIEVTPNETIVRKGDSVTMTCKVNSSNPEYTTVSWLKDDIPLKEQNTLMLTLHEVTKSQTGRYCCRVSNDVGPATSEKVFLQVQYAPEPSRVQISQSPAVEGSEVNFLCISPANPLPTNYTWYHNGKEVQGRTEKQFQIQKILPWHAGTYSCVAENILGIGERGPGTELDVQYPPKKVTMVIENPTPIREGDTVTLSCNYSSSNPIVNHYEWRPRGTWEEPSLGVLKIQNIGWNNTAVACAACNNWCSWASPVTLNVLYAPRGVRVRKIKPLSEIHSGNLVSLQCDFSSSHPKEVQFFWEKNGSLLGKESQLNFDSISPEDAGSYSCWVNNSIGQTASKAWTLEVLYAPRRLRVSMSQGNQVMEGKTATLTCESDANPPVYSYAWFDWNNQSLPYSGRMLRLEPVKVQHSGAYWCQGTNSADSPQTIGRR
Kd (cynomolgus Siglec-2/CD22) [µM],Kd [1] [µM],Kd [2] [µM],Structure (SMILES)
1 to 10,1 to 10,1 to 10,"CC(=O)NCCOCCOCCOCCOCCNC(=O)CCOCCO[C@]1(C(=O)O)C[C@H](O)[C@@H](NC(=O)CO)[C@H]([C@H](O)[C@H](O)CNC(=O)Cc2ccc(-c3ccccc3)cc2)O1 [Compound 238, (2R,4S,5R,6R)-6-((1R,2R)-3-(2-([1,1′-biphenyl]-4-yl)acetamido)-1,2-dihydroxypropyl)-2-((2,19-dioxo-6,9,12,15,22-pentaoxa-3,18-diazatetracosan-24-yl)oxy)-4-hydroxy-5-(2-hydroxyacetamido) tetrahydro-2H-pyran-2-carboxylic acid]"
> 10,> 10,> 10,"C#CCOCCOCCO[C@]1(C(=O)O)C[C@H](O)[C@@H](NS(=O)(=O)NC)[C@H]([C@H](O)[C@H](O)CNC(=O)Cc2ccc(-c3ccc(O)cc3)cc2)O1 [Compound 225, (2R,4S,5R,6R)-6-((1R,2R)-1,2-dihydroxy-3-(2-(4′-hydroxy-[1,1′-biphenyl]-4-yl)acetamido)propyl)-4-hydroxy-5-((N-methylsulfamoyl)amino)-2-(2-(2-(prop-2-yn-1-yloxy)ethoxy)ethoxy)tetrahydro-2H-pyran-2-carboxylic acid]"
1 to 10,< 1,< 1,"C#CCOc1ccc(CO[C@]2(C(=O)O)C[C@H](O)[C@@H](NC(=O)CO)[C@H]([C@H](O)[C@H](O)CNC(=O)Cc3ccc(-c4ccc(O)cc4)cc3OC)O2)cc1 [Compound 51, (2R,4S,5R,6R)-6-((1R,2R)-1,2-dihydroxy-3-(2-(4′-hydroxy-3-methoxy-[1,1′-biphenyl]-4-yl)acetamido)propyl)-4-hydroxy-5-(2-hydroxyacetamido)-2-((4-(prop-2-yn-1-yloxy)benzyl)oxy)tetrahydro-2H-pyran-2-carboxylic acid]"
1 to 10,1 to 10,< 1,"C#CCOCCOCCO[C@]1(C(=O)O)C[C@H](O)[C@@H](NC(=O)NC)[C@H]([C@H](O)[C@H](O)CNC(=O)Cc2ccc(-c3ccc(O)cc3)cc2)O1 [Compound 70, (2R,4S,5R,6R)-6-((1R,2R)-1,2-dihydroxy-3-(2-(4′-hydroxy-[1,1′-biphenyl]-4-yl)acetamido)propyl)-4-hydroxy-5-(3-methylureido)-2-(2-(2-(prop-2-yn-1-yloxy)ethoxy)ethoxy)tetrahydro-2H-pyran-2-carboxylic acid]"
< 1,1 to 10,< 1,"C#CCCOc1ccc(CO[C@]2(C(=O)O)C[C@H](O)[C@@H](NC(=O)CO)[C@H]([C@H](O)[C@H](O)CNC(=O)Cc3cccc(Cl)c3)O2)cc1 [Compound 123, (2R,4S,5R,6R)-2-((4-(but-3-yn-1-yloxy)benzyl)oxy)-6-((1R,2R)-3-(2-(3-chlorophenyl)acetamido)-1,2-dihydroxypropyl)-4-hydroxy-5-(2-hydroxyacetamido)tetrahydro-2H-pyran-2-carboxylic acid]"
1 to 10,1 to 10,1 to 10,"C#CCCOc1ccc(CO[C@]2(C(=O)O)C[C@H](O)[C@@H](NC(=O)CO)[C@H]([C@H](O)[C@H](O)CNC(=O)Cc3ccc(NC(C)=O)cc3)O2)cc1 [Compound 168, (2R,4S,5R,6R)-6-((1R,2R)-3-(2-(4-acetamidophenyl)acetamido)-1,2-dihydroxypropyl)-2-((4-(but-3-yn-1-yloxy)benzyl)oxy)-4-hydroxy-5-(2-hydroxyacetamido)tetrahydro-2H-pyran-2-carboxylic acid]"
< 1,< 1,< 1,"O=C(Cc1ccc(Cl)cc1)NC[C@@H](O)[C@@H](O)[C@@H]1O[C@@](OCCCCCCNC(=O)c2ccccc2)(C(=O)O)C[C@H](O)[C@H]1NC(=O)CO [Compound 108, (2R,4S,5R,6R)-2-((6-benzamidohexyl)oxy)-6-((1R,2R)-3-(2-(4-chlorophenyl)acetamido)-1,2-dihydroxypropyl)-4-hydroxy-5-(2-hydroxyacetamido)tetrahydro-2H-pyran-2-carboxylic acid]"
> 10,> 10,> 10,"C#CCNC(=O)CCOCCOCCO[C@]1(c2nn[nH]n2)C[C@H](O)[C@@H](NC(=O)CO)[C@H]([C@H](O)[C@H](O)CNC(=O)Cc2ccc(Cl)cc2)O1 [Compound 226, 3-(2-(2-(((2R,4S,5R,6R)-6-((1R,2R)-3-(2-(4-chlorophenyl)acetamido)-1,2-dihydroxypropyl)-4-hydroxy-5-(2-hydroxyacetamido)-2-(2H-tetrazol-5-yl)tetrahydro-2H-pyran-2-yl)oxy)ethoxy)ethoxy)-N-(prop-2-yn-1-yl)propanamide]"
< 1,< 1,< 1,"C#CCOCCNC(=O)CCCCCCO[C@]1(C(=O)O)C[C@H](O)[C@@H](NC(=O)CO)[C@H]([C@H](O)[C@H](O)CNC(=O)Cc2ccc(Cl)c(F)c2)O1 [Cpd. 214, (2R,4S,5R,6R)-6-((1R,2R)-3-(2-(4-chloro-3-fluorophenyl)acetamido)-1,2-dihydroxypropyl)-4-hydroxy-5-(2-hydroxyacetamido)-2-((7-oxo-7-((2-(prop-2-yn-1-yloxy)ethyl)amino)heptyl)oxy)tetrahydro-2H-pyran-2-carboxylic acid]"
1 to 10,> 10,1 to 10,"C#CCOCCOCCO[C@@]1(C(=O)O)O[C@@H]([C@H](O)[C@H](O)CNC(=O)Cc2ccc(-c3ccccc3)cc2)[C@H](NC(=O)CO)[C@@H](NC(=O)CC)[C@@H]1O [Compound 178, (2R,3S,4R,5R,6R)-6-((1R,2R)-3-(2-([1,1′-biphenyl]-4-yl)acetamido)-1,2-dihydroxypropyl)-3-hydroxy-5-(2-hydroxyacetamido)-2-(2-(2-(prop-2-yn-1-yloxy)ethoxy)ethoxy)-4-propionamidotetrahydro-2H-pyran-2-carboxylic acid]"
1 to 10,1 to 10,< 1,"C#CCOCCOCCO[C@]1(C(=O)O)C[C@H](O)[C@@H](NC(=O)CO)[C@H]([C@H](O)[C@H](O)CNC(=O)c2ccc(-c3ccc(O)cc3)cc2)O1 [Compound 19, (2R,4S,5R,6R)-6-((1R,2R)-1,2-dihydroxy-3-(4′-hydroxy-[1,1′-biphenyl]-4-carboxamido)propyl)-4-hydroxy-5-(2-hydroxyacetamido)-2-(2-(2-(prop-2-yn-1-yloxy)ethoxy)ethoxy)tetrahydro-2H-pyran-2-carboxylic acid]"
1 to 10,1 to 10,1 to 10,"C#CCCOc1ccc(CO[C@]2(C(=O)O)C[C@H](O)[C@@H](NC(=O)CO)[C@H]([C@H](O)[C@H](O)CNC(=O)Cc3ccc4nc[nH]c4c3)O2)cc1 [Compound 8, (2R,4S,5R,6R)-6-((1R,2R)-3-(2-(1H-benzo[d]imidazol-6-yl)acetamido)-1,2-dihydroxypropyl)-2-((4-(but-3-yn-1-yloxy)benzyl)oxy)-4-hydroxy-5-(2-hydroxyacetamido)tetrahydro-2H-pyran-2-carboxylic acid]"
< 1,< 1,< 1,"C#CCOCCCCCCO[C@]1(C(=O)O)C[C@H](O)[C@@H](NC(=O)CO)[C@H]([C@H](O)[C@H](O)CNC(=O)Cc2ccc(C3CC3)cc2)O1 [Compound 161, (2R,4S,5R,6R)-6-((1R,2R)-3-(2-(4-cyclopropylphenyl)acetamido)-1,2-dihydroxypropyl)-4-hydroxy-5-(2-hydroxyacetamido)-2-((6-(prop-2-yn-1-yloxy)hexyl)oxy)tetrahydro-2H-pyran-2-carboxylic acid]"
